Bounds are passed on as bounds.

The target in the assay is Apolipoprotein L1 (Homo sapiens, UniProt O14791). Description: Inhibition of APOL1 G1 variant in human HEK293-T-REx cells measured by Thallium assay. It counts as cell-based.
On to `O=C(NC1(CO)CC(F)(F)C1)C1CC(Cc2c(-c3ccc(F)cc3)[nH]c3c(F)cc(F)cc23)C1` (stereo not given), for which the IC50 (commonly the concentration needed to halve the response being measured) was > 1000 nM.

Take `CC(O)(CO)CNC(=O)C1CC(Cc2c(-c3ccc(F)cc3)[nH]c3c(F)cc(F)cc23)C1` (stereo not given): the IC50 was > 1000 nM.

`O=C(NCCO)O[C@H]1C[C@H](c2c(-c3ccc(F)cc3)[nH]c3c(F)cc(F)cc32)C1` had an IC50 of 0.25 nM.

`O=C(N[C@H]1CCOC1=O)C1CC(Cc2c(-c3ccc(F)cc3)[nH]c3c(F)cc(F)cc23)C1` (stereo not given in full): the IC50 is > 1000 nM.

Take `CC(NC(=O)C1CC(Cc2c(-c3ccc(F)cc3)[nH]c3c(F)cc(F)cc23)C1)c1ccn(C)n1` (stereo not given): the IC50 is > 1000 nM.

Turning to `Cc1nn(C)cc1CNC(=O)C1CC(Cc2c(-c3ccc(F)cc3)[nH]c3c(F)cc(F)cc23)C1` (stereo not given), the IC50 is > 1000 nM.

As for `Cc1noc(CNC(=O)C2CC(Cc3c(-c4ccc(F)cc4)[nH]c4c(F)cc(F)cc34)C2)n1` (stereo not given), the IC50 is > 1000 nM.

`O=C(NC1CC1)O[C@H]1C[C@H](c2c(-c3ccc(F)cc3)[nH]c3c(F)cc(F)cc32)C1` had an IC50 of 0.25 nM.

`O=C(Nc1ccc[nH]c1=O)C1CC(Cc2c(-c3ccc(F)cc3)[nH]c3c(F)cc(F)cc23)C1` (stereo not given): the IC50 was > 1000 nM.

For the molecule `O=C(NCc1cnco1)O[C@H]1C[C@H](c2c(-c3ccc(F)cc3)[nH]c3c(F)cc(F)cc32)C1`, half-maximal inhibition (IC50) was put at 0.25 nM. That is a sub-nanomolar value.

As to `O=C1CC(CNC(=O)C2CC(Cc3c(-c4ccc(F)cc4)[nH]c4c(F)cc(F)cc34)C2)CN1` (stereo not given), the IC50 is > 1000 nM.

The molecule `CC(CO)NC(=O)O[C@H]1C[C@H](c2c(-c3ccc(F)cc3)[nH]c3c(F)cc(F)cc32)C1` (stereo not given in full) registered an IC50 of 0.25 nM.

For `Cc1cc(CNC(=O)C2CC(Cc3c(-c4ccc(F)cc4)[nH]c4c(F)cc(F)cc34)C2)nn1C` (stereo not given), the IC50 was > 1000 nM.

Consider `O=C(NCC1(O)CCC1)C1CC(Cc2c(-c3ccc(F)cc3)[nH]c3c(F)cc(F)cc23)C1` (stereo not given), for which the IC50 is > 1000 nM.

In turn, `O=C(NCC(F)F)O[C@H]1C[C@H](c2c(-c3ccc(F)cc3)[nH]c3c(F)cc(F)cc32)C1` had a half-inhibitory concentration (IC50) of 0.25 nM.

For the molecule `Cn1cc(CNC(=O)C2CC(Cc3c(-c4ccc(F)cc4)[nH]c4c(F)cc(F)cc34)C2)cn1` (stereo not given), the IC50 is > 1000 nM.

Take `CC(C)(O)CCNC(=O)C1CC(Cc2c(-c3ccc(F)cc3)[nH]c3c(F)cc(F)cc23)C1` (stereo not given): the IC50 is > 1000 nM.

For the molecule `CC(=O)NCCNC(=O)C1CC(Cc2c(-c3ccc(F)cc3)[nH]c3c(F)cc(F)cc23)C1` (stereo not given), the IC50 is > 1000 nM.

Consider `O=C(NCc1ccoc1)C1CC(Cc2c(-c3ccc(F)cc3)[nH]c3c(F)cc(F)cc23)C1` (stereo not given), for which the IC50 is > 1000 nM.

Regarding `COC1(CNC(=O)C2CC(Cc3c(-c4ccc(F)cc4)[nH]c4c(F)cc(F)cc34)C2)CCOC1` (stereo not given), the IC50 was > 1000 nM.

In the case of `O=C(NCC1(O)CCCC1)C1CC(Cc2c(-c3ccc(F)cc3)[nH]c3c(F)cc(F)cc23)C1` (stereo not given), the IC50 is > 1000 nM.

Consider `C[C@@H](O)CNC(=O)C1CC(Cc2c(-c3ccc(F)cc3)[nH]c3c(F)cc(F)cc23)C1` (stereo not given in full), for which the IC50 is > 1000 nM.

Regarding `CC(C)C[C@@H](CO)NC(=O)C1CC(Cc2c(-c3ccc(F)cc3)[nH]c3c(F)cc(F)cc23)C1` (stereo not given in full), the IC50 was > 1000 nM.

On to `CC1(CNC(=O)C2CC(Cc3c(-c4ccc(F)cc4)[nH]c4c(F)cc(F)cc34)C2)CCOC1` (stereo not given), for which the IC50 is > 1000 nM.

As for `CC1(NC(=O)C2CC(Cc3c(-c4ccc(F)cc4)[nH]c4c(F)cc(F)cc34)C2)CCNC1=O` (stereo not given), the IC50 is > 1000 nM.

`O=C(N[C@@H](CO)C(F)(F)F)C1CC(Cc2c(-c3ccc(F)cc3)[nH]c3c(F)cc(F)cc23)C1` (stereo not given in full): the IC50 was > 1000 nM.

Take `O=C(NCc1cnco1)C1CC(Cc2c(-c3ccc(F)cc3)[nH]c3c(F)cc(F)cc23)C1` (stereo not given): the IC50 is > 1000 nM.

Take `O=C(NCC1CCOC1)C1CC(Cc2c(-c3ccc(F)cc3)[nH]c3c(F)cc(F)cc23)C1` (stereo not given): the IC50 was > 1000 nM.

In the case of `CC1(NC(=O)C2CC(Cc3c(-c4ccc(F)cc4)[nH]c4c(F)cc(F)cc34)C2)CCOC1` (stereo not given), the IC50 was > 1000 nM.

As to `C[C@H](NC(=O)C1CC(Cc2c(-c3ccc(F)cc3)[nH]c3c(F)cc(F)cc23)C1)C(C)(C)O` (stereo not given in full), the IC50 was > 1000 nM.

With `O=C(NCC1CC(F)(F)C1)C1CC(Cc2c(-c3ccc(F)cc3)[nH]c3c(F)cc(F)cc23)C1` (stereo not given), the IC50 is > 1000 nM.

`CS(=O)(=O)CCNC(=O)C1CC(Cc2c(-c3ccc(F)cc3)[nH]c3c(F)cc(F)cc23)C1` (stereo not given): the IC50 was > 1000 nM.

As to `O=C(NCC1CCCO1)C1CC(Cc2c(-c3ccc(F)cc3)[nH]c3c(F)cc(F)cc23)C1` (stereo not given), the IC50 was > 1000 nM.

`C[C@H](CO)NC(=O)O[C@H]1C[C@H](c2c(-c3ccc(F)cc3)[nH]c3c(F)cc(F)cc32)C1` came in with an IC50 of 0.25 nM.

Regarding `NC(=O)CNC(=O)O[C@H]1C[C@H](c2c(-c3ccc(F)cc3)[nH]c3c(F)cc(F)cc32)C1`, the IC50 is < 250 nM.

Consider `Cn1cnc(CNC(=O)C2CC(Cc3c(-c4ccc(F)cc4)[nH]c4c(F)cc(F)cc34)C2)c1` (stereo not given), for which the IC50 was > 1000 nM.

As to `O=C(NCc1ccc[nH]c1=O)C1CC(Cc2c(-c3ccc(F)cc3)[nH]c3c(F)cc(F)cc23)C1` (stereo not given), the IC50 is > 1000 nM.

`O=C(NC(CO)(CO)CO)O[C@H]1C[C@H](c2c(-c3ccc(F)cc3)[nH]c3c(F)cc(F)cc32)C1`: the IC50 was < 250 nM.

For `O=C(N[C@@H]1CCNC1=O)O[C@H]1C[C@H](c2c(-c3ccc(F)cc3)[nH]c3c(F)cc(F)cc32)C1`, the IC50 amounted to 0.25 nM. That is a sub-nanomolar value.

Consider `CC(C)(CO)NC(=O)O[C@H]1C[C@H](c2c(-c3ccc(F)cc3)[nH]c3c(F)cc(F)cc32)C1`, for which the IC50 was 0.25 nM.

With `CC(NC(=O)C1CC(Cc2c(-c3ccc(F)cc3)[nH]c3c(F)cc(F)cc23)C1)C1CCOC1` (stereo not given), the IC50 is > 1000 nM.

On to `O=C(NC1(CCO)CC1)C1CC(Cc2c(-c3ccc(F)cc3)[nH]c3c(F)cc(F)cc23)C1` (stereo not given), for which the IC50 is > 1000 nM.

Consider `COCC1(CNC(=O)C2CC(Cc3c(-c4ccc(F)cc4)[nH]c4c(F)cc(F)cc34)C2)CC1` (stereo not given), for which the IC50 was > 1000 nM.

As to `C[C@@H](CO)NC(=O)O[C@H]1C[C@H](c2c(-c3ccc(F)cc3)[nH]c3c(F)cc(F)cc32)C1`, 0.25 nM corresponded to half-maximal inhibition (IC50).

As for `O=C(NCc1cocn1)C1CC(Cc2c(-c3ccc(F)cc3)[nH]c3c(F)cc(F)cc23)C1` (stereo not given), the IC50 is > 1000 nM.

`O=C(Nc1c[nH][nH]c1=O)C1CC(Cc2c(-c3ccc(F)cc3)[nH]c3c(F)cc(F)cc23)C1` (stereo not given): the IC50 is > 1000 nM.

Consider `CC1(O)CC(NC(=O)C2CC(Cc3c(-c4ccc(F)cc4)[nH]c4c(F)cc(F)cc34)C2)C1` (stereo not given), for which the IC50 was > 1000 nM.

For `O=C(NCc1ncc[nH]1)C1CC(Cc2c(-c3ccc(F)cc3)[nH]c3c(F)cc(F)cc23)C1` (stereo not given), the IC50 is > 1000 nM.

`CC(C)(O)CNC(=O)C1CC(Cc2c(-c3ccc(F)cc3)[nH]c3c(F)cc(F)cc23)C1` (stereo not given): the half-inhibitory concentration (IC50) was > 1000 nM.

`O=C(NCC1(CO)CC1)C1CC(Cc2c(-c3ccc(F)cc3)[nH]c3c(F)cc(F)cc23)C1` (stereo not given): the IC50 is > 1000 nM.

As to `O=C(NCc1cnn(CC(F)(F)F)c1)C1CC(Cc2c(-c3ccc(F)cc3)[nH]c3c(F)cc(F)cc23)C1` (stereo not given), the IC50 is > 1000 nM.

With `O=C(NCC1CCOCC1)C1CC(Cc2c(-c3ccc(F)cc3)[nH]c3c(F)cc(F)cc23)C1` (stereo not given), the IC50 is > 1000 nM.

In the case of `Cn1ccnc1CNC(=O)C1CC(Cc2c(-c3ccc(F)cc3)[nH]c3c(F)cc(F)cc23)C1` (stereo not given), the IC50 was > 1000 nM.

Consider `Cn1cncc1CNC(=O)C1CC(Cc2c(-c3ccc(F)cc3)[nH]c3c(F)cc(F)cc23)C1` (stereo not given), for which the concentration for half-maximal inhibition (IC50) was > 1000 nM.

In the case of `O=C(NCc1ccc(=O)[nH]c1)C1CC(Cc2c(-c3ccc(F)cc3)[nH]c3c(F)cc(F)cc23)C1` (stereo not given), the IC50 was > 1000 nM.

Values taken from ChEMBL document CHEMBL5052856, “Inhibitors of apol1 and methods of using same” (2021).
